Test [1] addresses T1, 5'-nucleotidase (Homo sapiens, UniProt P21589). Description: Inhibition of human Ecto-5'-nucleotidase transfected in COS7 cells preincubated for 10 mins followed by AMP addition measured after 10 mins. It is filed as cell-based, COS-7.
In test [2] the target is T2, Alkaline phosphatase, tissue-nonspecific isozyme (Bos taurus, UniProt P09487).
T2 sequence (P09487 whole entry): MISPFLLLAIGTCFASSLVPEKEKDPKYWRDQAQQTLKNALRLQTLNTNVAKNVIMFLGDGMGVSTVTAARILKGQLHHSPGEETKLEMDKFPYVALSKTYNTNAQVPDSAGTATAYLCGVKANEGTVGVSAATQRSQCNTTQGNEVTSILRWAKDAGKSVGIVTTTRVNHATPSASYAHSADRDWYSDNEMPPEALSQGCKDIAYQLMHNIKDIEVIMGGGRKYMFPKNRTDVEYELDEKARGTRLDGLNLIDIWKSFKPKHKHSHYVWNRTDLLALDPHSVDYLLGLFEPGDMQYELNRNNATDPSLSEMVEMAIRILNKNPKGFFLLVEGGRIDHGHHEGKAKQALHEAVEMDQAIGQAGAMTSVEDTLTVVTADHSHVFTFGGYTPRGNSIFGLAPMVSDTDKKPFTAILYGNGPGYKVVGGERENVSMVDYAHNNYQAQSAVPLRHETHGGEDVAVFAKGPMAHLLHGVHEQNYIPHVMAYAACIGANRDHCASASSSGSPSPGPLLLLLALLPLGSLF
Description: Inhibition of bovine tissue non-specific alkaline phosphatase preincubated for 3 to 5 mins followed by CDP-star substrate addition measured after 15 mins by luminescence assay.

Test [3] concerns the target T3, 5'-nucleotidase (Rattus norvegicus) (UniProt P21588).
T3 sequence (whole entry): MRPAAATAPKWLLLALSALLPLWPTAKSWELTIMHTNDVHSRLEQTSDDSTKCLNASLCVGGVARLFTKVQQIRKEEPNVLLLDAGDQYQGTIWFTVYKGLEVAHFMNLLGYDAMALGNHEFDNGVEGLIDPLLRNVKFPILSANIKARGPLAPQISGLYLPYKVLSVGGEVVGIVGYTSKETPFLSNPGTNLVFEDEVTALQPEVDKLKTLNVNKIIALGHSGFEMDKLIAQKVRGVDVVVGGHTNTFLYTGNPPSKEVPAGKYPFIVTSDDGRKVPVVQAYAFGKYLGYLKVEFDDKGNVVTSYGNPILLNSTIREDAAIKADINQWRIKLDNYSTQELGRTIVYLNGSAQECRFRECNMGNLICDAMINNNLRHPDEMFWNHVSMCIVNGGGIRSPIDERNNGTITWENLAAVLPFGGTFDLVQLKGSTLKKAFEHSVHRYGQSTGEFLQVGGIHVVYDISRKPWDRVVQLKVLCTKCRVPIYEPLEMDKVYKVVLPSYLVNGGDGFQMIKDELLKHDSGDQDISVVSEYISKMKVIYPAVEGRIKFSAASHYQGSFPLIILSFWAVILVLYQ
The test can be described thus: Inhibition of rat Ecto-5'-nucleotidase transfected in COS7 cells at 1 mM preincubated for 10 mins followed by AMP addition measured after 10 mins. Conditions: COS-7. It is filed as cell-based.

Test [4] addresses Intestinal-type alkaline phosphatase (Bos taurus, UniProt P19111). Description: Inhibition of calf intestinal alkaline phosphatase preincubated for 3 to 5 mins followed by CDP-star substrate addition measured after 15 mins by luminescence assay.
Test [5] deals with Intestinal-type alkaline phosphatase (Bos taurus) (UniProt P19111). The settings on record: 0.5 to 2 uM.
Description: Competitive inhibition of calf intestinal alkaline phosphatase at 0.5 to 2 uM preincubated for 3 to 5 mins followed by CDP-star substrate addition measured after 15 mins by double-reciprocal plot analysis
The target in test [6] is T1, 5'-nucleotidase. The test can be described thus: Inhibition of human Ecto-5'-nucleotidase transfected in COS7 cells at 1 mM preincubated for 10 mins followed by AMP addition measured after 10 mins. It is filed as cell-based. Conditions: COS-7.
Test [7] deals with T4, Alkaline phosphatase, tissue-nonspecific isozyme (Bos taurus) (UniProt P09487).
T4 sequence (whole entry): T2 sequence (P09487 whole entry)
The test can be described thus: Competitive inhibition of bovine tissue non-specific alkaline phosphatase at 0.5 to 2 uM preincubated for 3 to 5 mins followed by CDP-star substrate addition measured after 15 mins by double-reciprocal plot analysis.

For another test, the species on record is Bos taurus. Description: Selectivity ratio of Ki for calf intestinal alkaline phosphatase to Ki for bovine tissue non-specific alkaline phosphatase.
Test [8] concerns the target T1, 5'-nucleotidase. Conditions: COS-7, 0.5 to 2 uM.
The target in test [9] is T3, 5'-nucleotidase (Rattus norvegicus). The settings on record: COS-7, 0.5 to 2 uM.
Description: Uncompetitive inhibition of rat Ecto-5'-nucleotidase transfected in COS7 cells at 0.5 to 2 uM preincubated for 10 mins followed by AMP addition measured after 10 mins by double-reciprocal plot analysis
Test [10] deals with T5, 5'-nucleotidase (Rattus norvegicus, UniProt P21588).
T5 sequence (P21588 whole entry): T3 sequence (whole entry)
Description: Inhibition of rat Ecto-5'-nucleotidase transfected in COS7 cells preincubated for 10 mins followed by AMP addition measured after 10 mins. It is filed as cell-based, COS-7.

Test [11] has as its target T4, Alkaline phosphatase, tissue-nonspecific isozyme (Bos taurus). Description: Inhibition of bovine tissue non-specific alkaline phosphatase at 0.2 mM preincubated for 3 to 5 mins followed by CDP-star substrate addition measured after 15 mins by luminescence assay.

The source made the active and inactive calls. The calls are words filed in the database; no cut-off is given here.

T1 sequence (P21589 whole entry): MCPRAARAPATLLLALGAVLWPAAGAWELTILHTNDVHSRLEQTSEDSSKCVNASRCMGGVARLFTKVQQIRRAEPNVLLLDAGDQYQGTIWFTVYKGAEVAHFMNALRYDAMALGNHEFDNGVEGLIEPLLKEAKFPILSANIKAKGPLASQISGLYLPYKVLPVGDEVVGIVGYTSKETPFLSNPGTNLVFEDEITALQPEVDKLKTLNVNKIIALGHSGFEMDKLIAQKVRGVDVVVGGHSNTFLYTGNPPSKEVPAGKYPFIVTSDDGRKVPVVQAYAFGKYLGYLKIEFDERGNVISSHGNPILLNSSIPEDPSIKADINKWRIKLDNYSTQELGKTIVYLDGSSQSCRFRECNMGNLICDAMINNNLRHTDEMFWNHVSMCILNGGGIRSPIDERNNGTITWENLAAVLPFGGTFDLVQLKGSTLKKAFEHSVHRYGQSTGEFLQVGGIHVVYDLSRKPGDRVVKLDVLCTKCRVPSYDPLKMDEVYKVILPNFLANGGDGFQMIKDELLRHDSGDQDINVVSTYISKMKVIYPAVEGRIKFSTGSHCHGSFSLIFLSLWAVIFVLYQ
Chain of Intestinal-type alkaline phosphatase (P19111 whole entry): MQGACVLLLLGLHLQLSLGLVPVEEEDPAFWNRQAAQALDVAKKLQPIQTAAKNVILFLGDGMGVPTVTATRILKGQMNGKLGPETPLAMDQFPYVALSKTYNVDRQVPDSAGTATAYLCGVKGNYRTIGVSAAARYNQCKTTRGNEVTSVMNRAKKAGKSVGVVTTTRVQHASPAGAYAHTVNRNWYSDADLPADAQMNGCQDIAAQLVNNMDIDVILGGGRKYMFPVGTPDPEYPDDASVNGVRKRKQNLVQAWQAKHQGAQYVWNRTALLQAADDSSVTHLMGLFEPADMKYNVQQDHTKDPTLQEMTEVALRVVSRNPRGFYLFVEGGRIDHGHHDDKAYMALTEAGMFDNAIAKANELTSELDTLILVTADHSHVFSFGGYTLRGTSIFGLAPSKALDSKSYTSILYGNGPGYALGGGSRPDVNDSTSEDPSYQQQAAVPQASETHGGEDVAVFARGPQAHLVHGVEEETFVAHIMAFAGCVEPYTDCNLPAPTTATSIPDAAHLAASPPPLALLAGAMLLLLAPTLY
Chain of Intestinal-type alkaline phosphatase (Bos taurus) (P19111 20-506 limits assumed): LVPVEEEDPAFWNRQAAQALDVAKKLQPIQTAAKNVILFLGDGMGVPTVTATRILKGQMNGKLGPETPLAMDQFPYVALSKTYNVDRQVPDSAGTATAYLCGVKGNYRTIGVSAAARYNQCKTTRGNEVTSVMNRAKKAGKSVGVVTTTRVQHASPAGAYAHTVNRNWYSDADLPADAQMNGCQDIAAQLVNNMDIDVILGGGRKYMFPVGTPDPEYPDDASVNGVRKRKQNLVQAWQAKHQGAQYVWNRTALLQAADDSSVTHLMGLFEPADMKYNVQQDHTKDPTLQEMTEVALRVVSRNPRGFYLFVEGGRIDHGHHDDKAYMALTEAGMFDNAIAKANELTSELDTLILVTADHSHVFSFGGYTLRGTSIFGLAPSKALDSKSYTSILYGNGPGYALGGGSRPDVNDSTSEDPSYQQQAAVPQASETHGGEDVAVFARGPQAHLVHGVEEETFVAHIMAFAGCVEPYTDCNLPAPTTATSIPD

In the case of `COC1Oc2ccccc2C(=O)/C1=C\Nc1ccc(S(N)(=O)=O)cc1` (racemic), the IC50 on 5'-nucleotidase [1] was determined as 7110 nM; in [2], 171000 nM; in test [4], 565 nM. In addition, the Ki at 5'-nucleotidase [1] turned out to be 338 nM; in test [2], 72900 nM; in test [4] it was 240 nM. This molecule registered an inhibition in test [3] of 27.7%. In addition, the inhibition entry in test [5] was “Active”.
On to `COC1Oc2ccc(C)cc2C(=O)/C1=C\Nc1ccccc1S(N)(=O)=O` (racemic), for which the inhibition was 39.1% against 5'-nucleotidase [6] and 47.8% in test [3]. The half-maximal inhibitory concentration (IC50) in test [2] is 180 nM; in test [4] it was 5060 nM. Also, the Ki in test [2] is 78 nM; in test [4], 2180 nM. Moreover, the inhibition result in test [7] was “Active”. Also, the Ratio Ki in the test listed under Bos taurus stood at 28.
As for `CC(C)OC1Oc2ccccc2C(=O)/C1=C\Nc1cccc(S(N)(=O)=O)c1` (racemic), the IC50 against 5'-nucleotidase [1] is 287 nM; in [2], 111000 nM; in test [4] it was 17900 nM. Also, the Ki at 5'-nucleotidase [1] came out at 14 nM; in test [2] it was 47500 nM; in [4], 7660 nM. The inhibition result at 5'-nucleotidase [8] is “Active”. Moreover, in test [3], the inhibition was determined as 25.7%.
On to `CCOC1Oc2c(Br)cc(Br)cc2C(=O)/C1=C\Nc1cccc(S(N)(=O)=O)c1` (racemic), for which, in test [9], the inhibition entry was “Active”. On 5'-nucleotidase [10], this molecule had a half-inhibitory concentration (IC50) of 583 nM and a Ki of 27 nM.
For `COC1Oc2ccccc2C(=O)/C1=C\Nc1cccc(S(N)(=O)=O)c1` (racemic), the IC50 at 5'-nucleotidase [1] was found to be 380 nM; in test [4] it was 39800 nM; against 5'-nucleotidase [10] it was 2810 nM. In addition, the figures for the Ki (on 5'-nucleotidase [1]; in test [4]; at 5'-nucleotidase [10]) were 18 nM, 16900 nM and 134 nM, respectively. In test [11], this molecule came in with an inhibition of 32.1%.
For the molecule `COC1Oc2ccc(Cl)cc2C(=O)/C1=C\Nc1ccccc1S(N)(=O)=O` (racemic), the values for the half-maximal inhibitory concentration (IC50) (on 5'-nucleotidase [1]; in [4]; against 5'-nucleotidase [10]) were 1350 nM, 2320 nM and 1310 nM, respectively. Besides, the inhibition constant Ki at 5'-nucleotidase [1] came to 64 nM; in test [4], 992 nM; at 5'-nucleotidase [10] it was 62 nM. The inhibition in test [11] is 29.9%.
